Measurements: patent US9173875B2, “Treatment for nicotine-induced lung disease using peroxisome proliferator-activated receptor gamma agonists” (Los Angeles Biomedical Research Institute at Harbor-UCLA …, priority 2006, dated 2015)

Tested on: ATII cells
Conditions: nicotine 24 h

## CN1CCCC1c1cccnc1 (stereo not shown) [nicotine]
  ATII cell proliferation, direct stimulation in vitro: no effect
